Data published in ChEMBL document CHEMBL3217472, “Identification of novel urea derivatives as PTP1B inhibitors: synthesis, biological evaluation and structureactivity relationships” (Medchemcomm, 2013).
Calls of active or inactive are those of the source. The rule behind the calls is not given here.

Experiments:
[1] = target: T1, Tyrosine-protein phosphatase non-receptor type 1 (Homo sapiens) (UniProt P18031); test: Inhibition of human recombinant PTP1B using phosphopeptide as substrate at 10 uM after 30 mins by malachite green assay relative to control
T1 sequence (whole entry): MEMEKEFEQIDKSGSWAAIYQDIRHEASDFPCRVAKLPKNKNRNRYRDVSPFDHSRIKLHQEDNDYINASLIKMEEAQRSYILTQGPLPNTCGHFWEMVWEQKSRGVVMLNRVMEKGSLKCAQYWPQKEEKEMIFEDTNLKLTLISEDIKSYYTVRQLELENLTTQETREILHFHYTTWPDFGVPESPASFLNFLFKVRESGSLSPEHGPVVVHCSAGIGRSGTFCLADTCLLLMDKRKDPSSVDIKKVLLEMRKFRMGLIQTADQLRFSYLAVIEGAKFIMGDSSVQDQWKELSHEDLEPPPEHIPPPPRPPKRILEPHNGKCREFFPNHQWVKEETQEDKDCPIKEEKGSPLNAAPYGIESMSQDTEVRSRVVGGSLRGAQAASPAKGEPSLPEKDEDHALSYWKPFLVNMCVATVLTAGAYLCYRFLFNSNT

[2] = tested on: Rattus norvegicus; test: Antihyperglycemic activity in streptozotocin-induced Sprague-Dawley albino rat diabetic model assessed as reduction of blood glucose AUC (0 to 24 hrs) at 100 mg/kg, po by glucometer relative to control; format: functional; set-up: scale not given: the % may be the effect or the level left
[3] = tested on: Rattus norvegicus; test: Antihyperglycemic activity in streptozotocin-induced Sprague-Dawley albino rat diabetic model assessed as reduction of blood glucose AUC (0 to 5 hrs) at 100 mg/kg, po by glucometer relative to control; format: functional; set-up: scale not given: the % may be the effect or the level left
[4] = target: T2, Tyrosine-protein phosphatase non-receptor type 1 (Homo sapiens, UniProt P18031); test: Inhibition of human recombinant PTP1B using phosphopeptide as substrate after 30 mins by malachite green assay
T2 sequence (P18031 whole entry): T1 sequence (whole entry)

[5] = tested on: Mus musculus; test: Antidyslipidemic activity in C57BL/Ks db/db mouse assessed as reduction of serum cholesterol level at 10 mg/kg measured on day 10 to 15 relative to vehicle-treated sham control; format: functional
[6] = tested on: Mus musculus; test: Antihyperglycemic activity in C57BL/Ks db/db mouse assessed as reduction of blood glucose AUC (0 to 120 mins) at 10 mg/kg, po measured on day 15 by OGTT relative to vehicle-treated sham control; format: functional
[7] = tested on: Mus musculus; test: Antidyslipidemic activity in C57BL/Ks db/db mouse assessed as increase in serum HDL-cholesterol level at 10 mg/kg measured on day 10 to 15 relative to vehicle-treated sham control; format: functional
[8] = tested on: Mus musculus; test: Antihyperglycemic activity in C57BL/Ks db/db mouse assessed as reduction of blood glucose level at 10 mg/kg measured from day 6 to day 14; format: functional, organism-based; set-up: dose 10 mg/kg
[9] = tested on: Mus musculus; test: Antidiabetic activity in C57BL/Ks db/db mouse assessed as normalization of fasting blood glucose level at 10 mg/kg relative to vehicle-treated sham control; format: functional
[10] = tested on: Mus musculus; test: Antidiabetic activity in C57BL/Ks db/db mouse assessed as restoration of altered insulin level in serum at 10 mg/kg relative to vehicle-treated sham control; format: functional
[11] = tested on: Mus musculus; test: Antihyperglycemic activity in C57BL/Ks db/db mouse assessed as reduction of blood glucose AUC (0 to 120 mins) at 10 mg/kg measured on day 10 by OGTT relative to vehicle-treated sham control; format: functional
[12] = tested on: Mus musculus; test: Antidyslipidemic activity in C57BL/Ks db/db mouse assessed as reduction of serum triglyceride level at 10 mg/kg measured on day 10 to 15 relative to vehicle-treated sham control; format: functional
[13] = tested on: Mus musculus; test: In vivo inhibition of PTP1B in skeletal muscle of C57BL/Ks db/db mouse assessed as upregulation of p-IRSI protein expression at 10 mg/kg, po by Western blot analysis relative to vehicle-treated sham control; format: functional, Muscle tissue
[14] = tested on: Mus musculus; test: Antidiabetic activity in C57BL/Ks db/db mouse assessed as improvement of HOMA index at 10 mg/kg relative to vehicle-treated sham control; format: functional
[15] = target: T2, Tyrosine-protein phosphatase non-receptor type 1; test: Competitive inhibition of human recombinant PTP1B using IR5 as substrate by Lineweaver-Burk plot analysis
[16] = tested on: Mus musculus; test: Antidyslipidemic activity in C57BL/Ks db/db mouse assessed as reduction of serum triglyceride level at 30 mg/kg measured on day 10 to 15 relative to vehicle-treated sham control; format: functional
[17] = tested on: Mus musculus; test: Antihyperglycemic activity in C57BL/Ks db/db mouse assessed as reduction of blood glucose AUC (0 to 120 mins) at 30 mg/kg measured on day 15 by OGTT relative to vehicle-treated sham control; format: functional
[18] = tested on: Mus musculus; test: Antihyperglycemic activity in C57BL/Ks db/db mouse assessed as reduction of blood glucose level at 30 mg/kg measured from day 8 to day 14; format: functional, organism-based; set-up: dose 30 mg/kg
[19] = tested on: Mus musculus; test: Antidiabetic activity in C57BL/Ks db/db mouse assessed as normalization of fasting blood glucose level at 30 mg/kg relative to vehicle-treated sham control; format: functional
[20] = tested on: Mus musculus; test: Antidyslipidemic activity in C57BL/Ks db/db mouse assessed as reduction of serum cholesterol level at 30 mg/kg measured on day 10 to 15 relative to vehicle-treated sham control; format: functional
[21] = tested on: Mus musculus; test: Antidiabetic activity in C57BL/Ks db/db mouse assessed as restoration of altered insulin level in serum at 30 mg/kg relative to vehicle-treated sham control; format: functional
[22] = tested on: Mus musculus; test: Antihyperglycemic activity in C57BL/Ks db/db mouse assessed as reduction of blood glucose AUC (0 to 120 mins) at 30 mg/kg measured on day 10 by OGTT relative to vehicle-treated sham control; format: functional
[23] = tested on: Mus musculus; test: In vivo inhibition of PTP1B in skeletal muscle of C57BL/Ks db/db mouse assessed as upregulation of p-IRSI protein expression at 30 mg/kg, po by Western blot analysis relative to vehicle-treated sham control; format: functional, Muscle tissue
[24] = tested on: Mus musculus; test: Antidyslipidemic activity in C57BL/Ks db/db mouse assessed as increase in serum HDL-cholesterol level at 30 mg/kg measured on day 10 to 15 relative to vehicle-treated sham control; format: functional
[25] = tested on: Mus musculus; test: Antidiabetic activity in C57BL/Ks db/db mouse assessed as improvement of HOMA index at 30 mg/kg relative to vehicle-treated sham control; format: functional

Row | inhibition [1] | Compound | Activity [2] | Activity [3] | other results
1 | 2.81% | COc1cc(CNC(=O)NCc2cccc([N+](=O)[O-])c2)cc(OC)c1 | – | – | –
2 | 32.9% | O=C(NCc1cccc(Cl)c1)NCc1cccc([N+](=O)[O-])c1 | – | – | –
3 | 14.9% | COc1cc(CNC(=O)NCc2ccccc2)ccc1O | – | – | –
4 | 18.9% | CC(C)(C)c1cc(CNC(=O)NCc2ccccc2)c(O)c(C(C)(C)C)c1 | – | – | –
5 | – | CN(C)C(=N)NC(=N)N [METFORMIN] | 23.3% | 21% | –
6 | 2.85% | COc1ccc(CNC(=O)NCc2cccc([N+](=O)[O-])c2)cc1 | – | – | –
7 | 2.4% | O=C(NCc1ccccc1)NCc1cccc([N+](=O)[O-])c1 | – | – | –
8 | 78.8% | COc1cc(OC)c(CNC(=O)NCc2ccccc2)c(OC)c1 | 18.6% | 16.1% | IC50 [4]: 7.6 µM
9 | 2.1% | O=C(NCc1ccccc1)NCc1ccccc1[N+](=O)[O-] | – | – | –
10 | 40% | O=C(NCc1cccc([N+](=O)[O-])c1)NCc1cccc(-c2cccc([N+](=O)[O-])c2)n1 | – | – | –
11 | 7.5% | COc1cc(CNC(=O)NCc2cccc([N+](=O)[O-])c2)cc(OC)c1OC | – | – | –
12 | 13.7% | COc1cc(Cl)c(CNC(=O)NCc2ccccc2)c(Cl)c1OC | – | – | –
13 | – | CCc1ccc(CCOc2ccc(CC3SC(=O)NC3=O)cc2)nc1 (stereo unspecified) [PIOGLITAZONE] | – | – | Efficacy [5]: 9.17%; Efficacy [6]: 52.9%; Efficacy [7]: 11.1%; Activity [8]: Active; Efficacy [9]: 64.7%; Efficacy [10]: 46.1%; Efficacy [11]: 40.8%; Efficacy [12]: 12.6%; fold change (FC) [13]: 1.37; Efficacy [14]: 70.3%
14 | 79.4% | O=C(NCc1cccc([N+](=O)[O-])c1)NCc1ccccc1[N+](=O)[O-] | 21.7% | 20.4% | Ki [15]: 7.88 µM; Efficacy [16]: 8.9%; Efficacy [17]: 35.9%; Activity [18]: Active; Efficacy [19]: 52.3%; Efficacy [20]: 16.3%; Efficacy [21]: 34.5%; Efficacy [22]: 24.1%; fold change (FC) [23]: 1.25; Efficacy [24]: 46.8%; IC50 [4]: 7.47 µM; Efficacy [25]: 69.7%
15 | 60% | Cc1ccc(C(=O)Nc2ccc(S(=O)(=O)O)c3cc(S(=O)(=O)O)cc(S(=O)(=O)O)c23)cc1NC(=O)c1cccc(NC(=O)Nc2cccc(C(=O)Nc3cc(C(=O)Nc4ccc(S(=O)(=O)O)c5cc(S(=O)(=O)O)cc(S(=O)(=O)O)c45)ccc3C)c2)c1 | – | – | –
16 | 0.9% | O=C(NCc1ccccc1)NCc1ccc([N+](=O)[O-])cc1 | – | – | –
17 | 19% | O=C(NCc1ccccc1)NCc1c[nH]c2ccc(Cl)cc12 | – | – | –
18 | 56.6% | COc1cc(Cl)c(CNC(=O)NCc2cccc([N+](=O)[O-])c2)c(Cl)c1OC | 2.54% | 7.26% | IC50 [4]: 9.91 µM
19 | 60.9% | CC(=O)Nc1ccc(CNC(=O)NCc2ccccc2)cc1 | 14.8% | 14.2% | IC50 [4]: 9.39 µM
20 | 68.4% | O=C(NCc1cccc([N+](=O)[O-])c1)NCc1ccc(-c2ccc([N+](=O)[O-])cc2)o1 | 20% | 18.4% | IC50 [4]: 8.06 µM
21 | 31.2% | O=C(NCc1ccccc1)NCc1ccsc1 | – | – | –
22 | 21.4% | O=C(NCc1ccccc1)NCc1ccc(-c2ccc([N+](=O)[O-])cc2)o1 | 18.8% | 12.5% | –
23 | 46.8% | O=C(NCc1cccc([N+](=O)[O-])c1)NCc1ccco1 | – | – | –
